What was measured:
K-562 (Leukemia) = experiment: NCI60 screen (SRB); assay type: cell-based, human; details: 48 h; for growth percent: one dose 10 µM
[1] = Cytotoxicity in MCF-10A cells (alamarBlue); assay type: cell-based, human; details: human, MCF-10A non-tumorigenic mammary epithelial cells
Procedure: Figure 9 Effect of compounds 22a (A) and 22b (B) on the cell viability of non-tumorigenic MCF-10A human mammary epithelial cells at 24, 48, and 72 h. Cells were treated with the compounds 22a and 22b at concentrations of 10 μM, 1 μM, 0.5 μM, and 0.4 μM for 24, 48, or 72 h. […] Cell viability was expressed as a percentage of vehicle control (ethanol 1% (v/v)) and was determined by an alamarBlue assay (average ± SEM of three independent experiments). Two-way ANOVA (Bonferroni post-test) was used to test for statistical significance (*, p < 0.05; **, p < 0.01; ***, p < 0.001).
HL-60 cells were suspension cells and the seeding density for the viability assay was 25,000 cells/mL. MCF-7 cells (adherent) were cultured in Minimum Essential Media (MEM) with GlutaMAX™-I, supplemented with 1% (v/v) non-essential amino acids, 10% (v/v) fetal bovine serum (FBS), purchased from BD Biosciences (Edmund Halley Road, Oxford, UK), and 1% (v/v) penicillin/streptomycin 5000 U/mL. The MCF-7 cells used in the screening of the compounds during these experiments were mycoplasma-free. The seeding density of MCF-7 in the viability assay was 25,000 cells/mL and 50,000 cells/mL in the FACS assay. Normal breast cells (MCF-10A) (adherent) were cultured in Dulbecco’s Modified Eagle Medium: Nutrient Mixture F-12 (DMEM/F12; Gibco) supplemented with 5% horse serum (Invitrogen, Waltham, MA, USA), 20 ng/mL epidermal growth factor (Merck Millipore, Burlington, MA, USA), 0.5 μg/mL hydrocortisone (Sigma, Kanagawa, Japan), 100 ng/mL cholera toxin (Sigma), 10 μg/mL insulin (Sigma), and penicillin/streptomycin 5000 U/mL (1%) (Gibco, Waltham, MA, USA). […] MDA-MB-231 cells were cultured in Dulbecco’s Modified Eagle Medium, which was supplemented with 10% (v/v) fetal bovine serum (FBS) and 1% (v/v) penicillin/streptomycin 5000 U/mL. When not in use, all cells were kept in liquid nitrogen and frozen in a freezing media made of 90% FBS and 10% DMSO. All cells were grown in an atmosphere of 5% CO2/95% air in T75 culture flasks. The media was changed every 2–3 days and media was always prewarmed to 37 °C. All were sub-cultured every 3–4 days by trypsinization using TrypLE™ Express enzyme when confluence was reached to allow growth, prevent excessive cell death, and minimize the risk of infections derived by over-confluence. For the cell viability assay, the number of cells per milliliter was 25,000 cells/mL while the FACS assay utilized 50,000 cells/mL. Cells were maintained at 37 °C in 5% CO2 in a humidified incubator.
The biochemical assays were performed in triplicate and on at least three independent occasions to facilitate the determination of mean values. For the viability assay, cells were grown until 80% confluent. Adherent cells such as MCF-7, MDA-MB-231, and MCF-10A were trypsinized to detach them from the flask, counted as previously described, and seeded in 96 well plates with a seeding density of 25,000 cells /mL (200 µL of suspension in each well so that the final number of cells per well was 5000) and 1 × 10^4 cells/well seeding density for suspension HL-60 cells. Adherent cells were incubated for 24 h after being seeded in the 96 well plate and treated on the following day, while suspension cells were treated on the same day of the seeding. In both cases, the incubation time after the treatment with the drug was 72 h. After 68 h incubation, the AlamarBlue was added (20 µL in each well) and the incubation time was completed. After 72 h, the change in color was measured by spectrofluorimetry at an excitation wavelength of 544 nm and emission wavelength of 590 nm. AlamarBlue is a cell viability indicator containing a compound called resazurin. AlamarBlue is water soluble, stable in culture media, non-toxic, and is permeable through the cell membrane. When resazurin (blue) enters the live cells, it is reduced to the fluorescent molecule resorufin (pink).

KM12 (Colon Cancer) = experiment: NCI60 screen (SRB); assay type: cell-based, human; details: 48 h; for growth percent: one dose 10 µM
HCT-116 (Colon Cancer) = experiment: NCI60 screen (SRB); assay type: cell-based, human; details: 48 h; for growth percent: one dose 10 µM
HT29 (Colon Cancer) = experiment: NCI60 screen (SRB); assay type: cell-based, human; details: 48 h; for growth percent: one dose 10 µM
HL-60 cells = experiment: alamarBlue cell viability assay; assay type: cell-based; details: Homo sapiens
Procedure: Figure 7 Preliminary cell viability data for (A) triazoles 22b–d, 22f, 22g and imidazole 23d and (B) triazoles 26a–e and imidazoles 27a, 27b, 27e, 27f, 27h and 27i in HL-60 cells. Cell proliferation of HL-60 cells was determined with an alamarBlue assay (seeding density 2.5 × 10^4 cells/mL per well for 96-well plates). Compound concentrations of either 1 or 0.1 μM for 72 h were used to treat the cells (in triplicate) with control wells containing vehicle ethanol (1% v/v). The mean value ± SEM for three independent experiments is shown. The positive control was CA-4 (1.0 μM and 0.1 μM).
HL-60 cells were suspension cells and the seeding density for the viability assay was 25,000 cells/mL. […]
The biochemical assays were performed in triplicate and on at least three independent occasions to facilitate the determination of mean values. […] Adherent cells such as MCF-7, MDA-MB-231, and MCF-10A were trypsinized to detach them from the flask, counted as previously described, and seeded in 96 well plates with a seeding density of 25,000 cells /mL (200 µL of suspension in each well so that the final number of cells per well was 5000) and 1 × 10^4 cells/well seeding density for suspension HL-60 cells. […] After 72 h, the change in color was measured by spectrofluorimetry at an excitation wavelength of 544 nm and emission wavelength of 590 nm. […]

ACHN (Renal Cancer) = experiment: NCI60 screen (SRB); assay type: cell-based, human; details: 48 h; for growth percent: one dose 10 µM
[2] = 1 μM, 24 h, read-out: cell viability

Q: With `COc1ccc(/C=C/C(c2cc(OC)c(OC)c(OC)c2)n2cncn2)cc1O` (centres unmarked) [Compound 22b, (E)-5-(3-(1H-1,2,4-Triazol-1-yl)-3-(3,4,5-trimethoxyphenyl)prop-1-en-1-yl)-2-methoxyphenol] as the compound, how does the GI50 (K-562 (Leukemia); Homo sapiens, K562, five-dose) read?
A: 32 nM

Q: And the growth percent (K-562 (Leukemia))?
A: 8.05%

Q: What about the viability at 72 h, 0.4 µM ([1]; 72 h) of the same compound?
A: > 80%

Q: And the viability at 72 h, 0.5 µM ([1]; 0.5 μM, 72 h, read-out: cell viability)?
A: 80%

Q: And the viability at 24 h, 1 µM [1, 2]?
A: 100%

Q: What about the viability at 48 h, 1 µM ([1]; 1 μM, read-out: viable cells) of the same compound?
A: > 80%

Q: And the viability at 72 h, 1 µM ([1]; 1 μM, 72 h, read-out: cell viability)?
A: 55%

Q: And the viability at 48 h, 10 µM ([1]; 10 μM, read-out: viable cells)?
A: ~30%

Q: And the viability at 72 h, 10 µM ([1]; 10 μM, 72 h, read-out: cell viability)?
A: 24%

Q: And the GI50 (KM12 (Colon Cancer); Homo sapiens, five-dose)?
A: 40.5 nM

Q: What about the growth percent (KM12 (Colon Cancer)) of the same compound?
A: 26.67%

Q: And the GI50 (HCT-116 (Colon Cancer); Homo sapiens, five-dose)?
A: 41 nM

Q: And the growth percent (HCT-116 (Colon Cancer))?
A: 10.52%

Q: And the GI50 (HT29 (Colon Cancer); Homo sapiens, HT-29, five-dose)?
A: 3680 nM

Q: What about the growth percent (HT29 (Colon Cancer)) of the same compound?
A: 41.01%

Q: What about the IC50 (HL-60 cells) of the same compound?
A: 370 nM

Q: What about the IC50 (HL-60 cells; 72 h) of the same compound?
A: 366 ± 130 nM

Q: What about the GI50 (ACHN (Renal Cancer); Homo sapiens, five-dose) of the same compound?
A: 57.9 nM

Q: What about the growth percent (ACHN (Renal Cancer)) of the same compound?
A: 63.11%

Q: Which growth percent (K-562 (Leukemia)) does the source give for `COc1ccc(/C=C/C(c2cc(OC)c(OC)c(OC)c2)n2ccnc2)cc1O` (centres unmarked) [Compound 23b, (E)-5-(3-(1H-Imidazol-1-yl)-3-(3,4,5-trimethoxyphenyl)prop-1-en-1-yl)-2-methoxyphenol] here?
A: 13.63%

Q: What about the growth percent (KM12 (Colon Cancer)) of the same compound?
A: 29.04%

Q: What about the growth percent (HCT-116 (Colon Cancer)) of the same compound?
A: 16.67%

Q: What about the growth percent (HT29 (Colon Cancer)) of the same compound?
A: 70.97%

Q: And the growth percent (ACHN (Renal Cancer))?
A: 46.34%

Q: What does the source list for `COc1cc(/C=C/C(/C=C/c2cc(OC)c(OC)c(OC)c2)n2ccnc2)cc(OC)c1OC` [Compound 30, 1-((1E,4E)-1,5-bis(3,4,5-trimethoxyphenyl)penta-1,4-dien-3-yl)-1H-imidazole]?
A: growth percent (K-562 (Leukemia)): 61.41%; growth percent (KM12 (Colon Cancer)): 82.35%; growth percent (HCT-116 (Colon Cancer)): 78.18%; growth percent (HT29 (Colon Cancer)): 80.30%; growth percent (ACHN (Renal Cancer)): 99.92%

Q: Which results are given for `COc1ccc(/C=C/C(c2cc(OC)c(OC)c(OC)c2)n2cncn2)cc1` (centres unmarked) [Compound 22a, (E)-1-(3-(4-Methoxyphenyl)-1-(3,4,5-trimethoxyphenyl)allyl)-1H-1,2,4-triazole]?
A: growth percent (K-562 (Leukemia)): 17.72%; viability at 72 h, 0.4 µM ([1]; 72 h): > 80%; viability at 24 h, 1 µM [1, 2]: 100%; viability at 48 h, 1 µM ([1]; 1 μM, read-out: viable cells): > 80%; viability at 24 h, 10 µM ([1]; 10 μM, 24 h, read-out: viable cells): 78%; viability at 48 h, 10 µM ([1]; 10 μM, read-out: viable cells): ~57%; growth percent (KM12 (Colon Cancer)): 30.66%; growth percent (HCT-116 (Colon Cancer)): 21.99%; growth percent (HT29 (Colon Cancer)): 4.96%; growth percent (ACHN (Renal Cancer)): 57.45%

Q: With `COc1ccc(C2CC(n3ccnc3)c3cc(OC)c(OC)c(OC)c32)cc1O` (centres unmarked) [Compound 27a, 5-(3-(1H-Imidazol-1-yl)-5,6,7-trimethoxy-2,3-dihydro-1H-inden-1-yl)-2-methoxyphenol] as the compound, how does the growth percent (K-562 (Leukemia)) read?
A: 44.70%

Q: And the growth percent (KM12 (Colon Cancer))?
A: 50.59%

Q: And the growth percent (HCT-116 (Colon Cancer))?
A: 81.13%

Q: And the growth percent (HT29 (Colon Cancer))?
A: 101.76%

Q: And the growth percent (ACHN (Renal Cancer))?
A: 86.36%
